pIC50: −log10 of the molar value.
Columns and labels:
COX-2 = molecular target: T1, COX-2 (Homo sapiens, UniProt P35354); experiment: COX-2-dependent PGE2 formation in LPS-activated monocytes; assay type: cell-based; design: endogenous in cells; host or cells: human monocytes, LPS-stimulated for 24 h; settings: up to 10 µM
T1 sequence (P35354 18-604): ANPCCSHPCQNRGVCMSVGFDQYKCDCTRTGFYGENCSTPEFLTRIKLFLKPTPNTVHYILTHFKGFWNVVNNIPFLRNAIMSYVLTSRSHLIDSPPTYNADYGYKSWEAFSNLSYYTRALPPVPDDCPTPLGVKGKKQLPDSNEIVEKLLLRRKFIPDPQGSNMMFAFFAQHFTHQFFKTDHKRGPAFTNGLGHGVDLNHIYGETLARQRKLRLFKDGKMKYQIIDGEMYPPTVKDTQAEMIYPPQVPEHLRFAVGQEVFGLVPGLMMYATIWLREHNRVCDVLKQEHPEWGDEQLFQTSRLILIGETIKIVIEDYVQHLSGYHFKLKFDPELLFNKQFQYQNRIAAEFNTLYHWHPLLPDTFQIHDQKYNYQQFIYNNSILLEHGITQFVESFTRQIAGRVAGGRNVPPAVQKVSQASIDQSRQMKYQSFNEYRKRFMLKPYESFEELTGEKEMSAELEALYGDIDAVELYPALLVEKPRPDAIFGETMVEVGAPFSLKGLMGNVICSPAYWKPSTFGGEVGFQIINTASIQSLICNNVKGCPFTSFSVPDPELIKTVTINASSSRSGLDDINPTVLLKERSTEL
Procedure: Cells were washed and medium was exchanged. Freshly isolated PMNL (1 × 10^7) and stably transfected HEK-293 (1 × 10^6) cells were suspended in PBS pH 7.4 containing 1 mg/ml glucose and 1 mM CaCl2. […] A23187- and A23187/AA-treated PMNL and A23187/AA-treated HEK-293 (5-LO_wt), HEK-293 (5-LO_3W) and HEK-293 (5-LO_Arg101Asp) cells produced 135 ± 21, 636 ± 112, 300 ± 59, 133 ± 29, 55 ± 9 ng 5-LO products, respectively. PMNL synthesized 29 ± 6 ng 12-HETE and 97 ± 23 ng 15-HETE when challenged with A23187/AA. 5-LO products from monocytes were analyzed by UPLC-MS/MS.
LPS-activated monocytes were treated with A23187 (2.5 µM) and AA (20 µM) to induce lipid mediator biosynthesis as described for LO product formation. Human blood was pre-incubated with vehicle (DMSO) or α-T-13′-COOH (4a, 100 nM) for 10 min, primed with LPS (1 µg/ml) for 30 min and stimulated with N-formyl-methionyl-leucyl-phenylalanine (fMLP, Sigma-Aldrich; 1 µM) for 15 min at 37 °C.

[1] = molecular target: T2, human recombinant LTC4 synthase (LTC4S) (Homo sapiens, UniProt Q16873); experiment: LTC4 synthase activity; assay type: biochemical
T2 construct: expressed in transfected cells; host or cells: HEK-293 cells stably expressing LTC4S (microsomal membranes)
T2 sequence (Q16873 1-150): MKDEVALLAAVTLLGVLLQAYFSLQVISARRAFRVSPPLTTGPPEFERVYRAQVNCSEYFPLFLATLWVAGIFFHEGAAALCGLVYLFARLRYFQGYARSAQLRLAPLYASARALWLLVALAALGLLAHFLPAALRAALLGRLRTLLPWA
Procedure: To investigate the effect of LCMs on LTC4S activity, we used microsomal membranes from HEK-293 cells stably expressing LTC4S[70]. […] The conversion of LTA4 to LTC4 methyl esters was initiated by addition of LTA4 methyl ester (Cayman Chemicals; 1 µM). After 10 min at 4 °C, the reaction was terminated by ice-cold methanol (one volume), and LTC-d5 methyl ester (5 ng; Cayman Chemicals) was added as internal standard. LTC4 was extracted and analyzed by UPLC-MS/MS as described for lipid mediators. Vehicle (DMSO)-treated microsomal membranes produced 7.1 ± 0.5 nmol LTC4.

bovine COX-1 = molecular target: T3, bovine COX-1 (Bos taurus, UniProt O62664); experiment: Activity of isolated COX-1; assay type: biochemical
T3 construct: purchased Cayman Chemicals
T3 sequence (O62664 25-600): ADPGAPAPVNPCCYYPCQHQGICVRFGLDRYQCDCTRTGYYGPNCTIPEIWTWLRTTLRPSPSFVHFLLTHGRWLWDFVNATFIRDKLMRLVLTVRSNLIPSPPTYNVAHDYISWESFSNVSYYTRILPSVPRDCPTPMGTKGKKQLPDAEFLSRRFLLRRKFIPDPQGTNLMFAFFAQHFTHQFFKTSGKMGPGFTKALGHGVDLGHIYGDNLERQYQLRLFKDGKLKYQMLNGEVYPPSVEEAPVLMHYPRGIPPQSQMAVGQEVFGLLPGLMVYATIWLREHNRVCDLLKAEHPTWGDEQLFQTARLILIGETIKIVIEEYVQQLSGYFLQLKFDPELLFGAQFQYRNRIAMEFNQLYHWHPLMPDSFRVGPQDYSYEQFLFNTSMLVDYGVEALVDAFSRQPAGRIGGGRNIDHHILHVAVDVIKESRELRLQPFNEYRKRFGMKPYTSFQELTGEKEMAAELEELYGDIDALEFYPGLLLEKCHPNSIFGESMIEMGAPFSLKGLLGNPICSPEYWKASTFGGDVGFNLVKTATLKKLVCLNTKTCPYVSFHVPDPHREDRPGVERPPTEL
Procedure: Purified bovine COX-1 (Cayman Chemicals; 50 units) or human recombinant COX-2 (Cayman Chemicals; 20 units) in 100 mM Tris buffer pH 8, 5 mM glutathione, 5 µM hemoglobin, and 100 µM EDTA were pre-incubated with LCMs for 5 min at 4 °C followed by 1 min at 37 °C. Formation of COX-derived 12(S)-hydroxy-5-cis-8,10-trans-heptadecatrienoic acid (12-HHT) was initiated by addition of AA (COX-1: 5 μM; COX-2: 2 μM).

[2] = system: peripheral blood mononuclear cells; experiment: Cell viability of PBMC (MTT assay); assay type: cell-based, human; settings: at 1 and 10 µM (one entry for both); 24 h; n.i. no inhibition
Procedure: The formazan product was solubilized with SDS (10% in 20 mM HCl), and absorbance was measured at 570 nm using a Multiskan Spectrum microplate reader (Thermo Fisher Scientific).

In the case of `Cc1c(C)c2c(c(C)c1O)CC[C@@](C)(CCCC(C)CCCC(C)CCCC(C)C(=O)O)O2` (stereo partly drawn) [4a, 13-((2R)-6-hydroxy-2,5,7,8-tetramethylchroman-2-yl)-2,6,10-trimethyltridecanoic acid], the “inhibition of COX-2-dependent PGE2 formation in activated human monocytes” value (COX-2) was “not inhibited”, the pIC50 [1] was 5.00 and the pIC50 (bovine COX-1) was under 5.00. For the same compound, the “Cell viability/peripheral blood mononuclear cells, residual viability” value [2] was “n.i”.

Source: PMC6148290, “Endogenous metabolites of vitamin E limit inflammation by targeting 5-lipoxygenase” (Nature Communications, 2018)
